Source: patent US20220073642A1, “METHODS OF USING SURUFATINIB IN TREATING ADVANCED PANCREATIC AND EXTRA-PANCREATIC NEUROENDOCRINE TUMORS” (HUTCHISON MEDIPHARMA LIMITED, priority 2020, published 2022)

Columns and labels:
NETs = assay: Phase I dose escalation clinical study, extension stage (NCT02133157); format: in vivo, human; conditions: 21 efficacy evaluable patients with NETs
From the text: This multi-center, open-label, dose-escalation phase I study investigated the safety, pharmacokinetic characteristics, and preliminary anti-tumor activity of surufatinib in patients with advanced solid tumors. The primary objective was to determine the maximum tolerated dose (MTD), recommended phase II trial dose (RPTD), and the safety profile of Surufatinib when administered to patients with advanced malignant solid tumors. A secondary objective was to evaluate the pharmacokinetic profile of Surufatinib, and exploratory objectives included evaluating the ORR among patients given Surufatinib therapy and determining whether biomarkers for angiogenesis might reflect any clinical efficacy shown by Surufatinib. A modified Fibonacci 3+3 construct was used to design this dose escalation study and determine the MTD of Surufatinib.
In addition, similar efficacy trends have also been shown in the Phase Ib/II study of patients with NETs (Jianming Xu et al. Clin Cancer Res. 25(12):3486-3494). […] Therefore, further clinical investigation of Surufatinib is valuable.

[1] = test system: advanced extra-pancreatic neuroendocrine tumors; assay: SANET-ep Phase III study, efficacy (RECIST 1.1); format: in vivo, human
From the text: (§1) This study is a randomized, double-blind, placebo-controlled, multi-center Phase III study to assess the efficacy and safety of Surufatinib in treating advanced extra-pancreatic neuroendocrine tumors.
The targeted population are progressive, locally advanced or distant metastatic extra-pancreatic NETs (including, but not limited to: lungs, thymus gland and gastrointestinal origins like stomach, duodenum, liver, jejunum, ileum, colon, caecum, vermiform appendix and rectum, and unknown origin) patients with no possibility of radical resection of tumor, and of pathologically with low or intermediate grade (G1 or G2). For Gastrointestinal neuroendocrine tumors (GI-NETs), G1 is defined as <2 mitoses/10 high-power field
[HPF] and/or <3% Ki-67 index; G2 is defined as 2-20/10 HPF and/or 3-20% Ki-67 index; for NETs originating from the lung and thymus gland, G1 is defined as <2 mitoses/10 HPF and no necrosis; G2 is defined as 2-10/10 HPF and/or foci of necrosis. NETs from origin other than GI-NET, lung and thymus, or from unknown origins should be graded according to the GI-NET grading criteria. If the mitotic ratio and Ki-67 index correspond to different grade, the higher grade should be used to assign classification. All patients must provide tumor samples for central pathology review to check as of whether the diagnostics and grade score comply with inclusion criteria. Patients must have radiological documentation of progression of disease within 12 months prior to randomization. Patients must have previously progressed no more than two types of systemic anti-tumor therapy, including long-acting somatostatin analogs (SSAs), interferon, PRRT (peptide receptor radionuclide therapy), mammalian target of rapamycin (mTOR) inhibitors or chemotherapy (all chemotherapies are deemed as a single therapy regardless of drug or time); patients who are unable or unwilling to receive such treatments are also eligible if all other criteria are met.
Approximately 273 patients will be randomly assigned (in 2:1 ratio) to the following treatment groups based on interactive web response system IWRS:
(§2) Surufatinib, 300 mg, once daily (QD), orally
(§3) Continuous administration (every 4 weeks as a treatment cycle).
According to the randomized result, the patients will receive continuous oral treatment, every 4-week treatment cycle until progression of disease occurs, intolerable toxicity or other protocol-specified end-of-treatment criteria is met.
In accordance with RECIST 1.1, the tumor should be assessed every 8 weeks (±3 days) within the first year and every 12 weeks (±3 days) after the patient has been treated for more than one year.
1) Primary therapeutic endpoint: PFS (according to RECIST 1.1 criteria)
2) Secondary therapeutic endpoint: Objective Response Rate of the tumor (ORR), Disease Control Rate (DCR), Duration of Response (DoR), Time to Response (TTR) and Overall Survival (OS) (according to RECIST 1.1 criteria)

[2] = SANET-p Phase III study, safety and exposure (NCI CTCAE v4.03); conditions: N = 113
From the text: SANET-p (NCT02589821) is a randomized, double-blind, placebo-controlled Phase III study evaluating the efficacy and safety of surufatinib compared to placebo in patients with progressive, advanced (unresectable local progression or distant metastasis), well-differentiated pancreatic neuroendocrine tumors.
Continuous administration (every 4 weeks as a treatment cycle). Surufatinib can be taken with or without food and should be taken as a single administration per day. It is recommended to take the drug at the same time every day. If the patient vomits after dosing surufatinib, there is no need to make up.
During the treatment, physician should closely monitor the patients and adjust dosage according to the safety and tolerability of individual patients, including dose interruption, dose reduction or permanently discontinue treatment. The dose adjustment should follow the guidance of interruption first and then dose reduction.

[3] = SANET-ep Phase III study, safety and exposure (NCI CTCAE v4.03); format: in vivo, human; conditions: N = 129
Procedure: as §1, §2, §3

[4] = treatment-related AE, safety set

Cc1cc2cc(Oc3ccnc(Nc4cccc(CS(=O)(=O)NCCN(C)C)c4)n3)ccc2[nH]1 [Surufatinib, N-(2-(dimethylamino)ethyl)-1-(3-((4-((2-methyl-1H-indol-5-yl)oxy)pyrimidin-2-yl)amino)phenyl)-methanesulfonamide]
DCR (NETs): 85.7% | ORR (NETs): 38.1% | not evaluable for response (NETs): 3 patients | patients achieved PR (NETs): 8 patients | patients achieved SD (NETs): 10 patients | Duration of response ([1]; BIIRC-assessed): 5.6 months | Time to response ([1]; BIIRC-assessed): 2.9 months | Disease control rate ([1]; BIIRC-assessed, N = 126): 77.8% | objective response rate ([1]; BIIRC-assessed, N = 126): 7.9% | Best overall response: Partial response ([1]; Investigator-assessed, N = 126): 13 n | Disease control rate ([1]; Investigator-assessed, N = 126): 86.5% | objective response rate ([1]; Investigator-assessed, N = 126): 10.3% | median progression-free survival as assessed by the investigators ([1]; N = 129, 300 mg QD orally): 9.2 months | progression-free survival HR vs placebo, BIIRC-assessment ([1]; in vivo): 0.66 | progression-free survival HR vs placebo, investigators ([1]; in vivo): 0.33 | progression-free survival HR vs placebo, post-hoc adjudicated BIIRC results ([1]; in vivo): 0.57 | Duration of response ([1]; investigator-assessed): 5.6 months | Time to response ([1]; investigator-assessed): 3.7 months | reduction of the risk of disease progression or death compared with placebo ([1]; investigators): 67% | HR for median progression-free survival, NETs of unknown or uncommon tumor origins ([1]; post-hoc subgroup analysis): 0.50 | median progression-free survival, BIIRC-assessment ([1]; sensitivity analysis): 7.4 months | median progression-free survival, patients previously treated with everolimus ([1]; subgroup, 7.8% of patients): 7.4 months | on-treatment deaths attributed to adverse events [2]: Two | Arthralgia, ≥Grade 3 [2, 4]: 0 n | Back pain, ≥Grade 3 [2, 4]: 0 n | Bilirubin conjugated increased, ≥Grade 3 [2, 4]: 0 n | Blood creatinine increased, ≥Grade 3 [2, 4]: 0 n | Blood lactate dehydrogenase increased, ≥Grade 3 [2, 4]: 0 n | Blood thyroid stimulating hormone increased, ≥Grade 3 [2, 4]: 0 n | Decreased appetite, ≥Grade 3 [2, 4]: 0 n | Dizziness, ≥Grade 3 [2, 4]: 0 n | Fatigue, ≥Grade 3 [2, 4]: 0 n | Haemoglobin increased, ≥Grade 3 [2, 4]: 0 n | Headache, ≥Grade 3 [2, 4]: 0 n | Hyperbilirubinaemia, ≥Grade 3 [2, 4]: 0 n | Hypercholesterolaemia, ≥Grade 3 [2, 4]: 0 n | Hypoalbuminaemia, ≥Grade 3 [2, 4]: 0 n | Hypothyroidism, ≥Grade 3 [2, 4]: 0 n | Nausea, ≥Grade 3 [2, 4]: 0 n | Occult blood positive, ≥Grade 3 [2, 4]: 0 n | Discontinuation due to proteinuria [3]: 1.6% | Discontinuation due to urine protein present [3]: 2.3%
